The target in assay [1] is human C3bBb (Homo sapiens (Human), UniProt P00751). Briefly: Human C3bBb enzyme assay (C3a generation from C3, ELISA). Format: biochemical. The note with it: starred values: assay conducted with 1 nM C3b:Bb enzyme; read-out: Human C3b:Bb IC50 Avg. The gist of the method: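 C3bBb was preformed from human C3b, CFB and CFD at 1 μM each (30 min, RT) in PBS pH 7.4 with 100 μM NiCl2 and 0.05% CHAPS. Then 3 nM complex with 1 μM human C3 was incubated with compound for 1 h at RT. C3a was quantified by ELISA against a standard curve, and IC50 came from a 10-point 4-parameter fit.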
For orientation: ELISA stands for enzyme-linked immunosorbent assay.

The test system of assay [2] is MAC formation in normal human serum. Briefly: Human serum MAC formation assay (zymosan-coated plates, 50% normal human serum). The note with it: 50% normal human serum with EGTA, 37° C. 30 minutes. A digest of the protocol:
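Compounds preincubated 15 min at RT with 50% normal human serum in gelatin buffer plus 20 mM EGTA, then complement activated 30 min at 37 °C on zymosan-coated plates. C9 neoepitope ELISA, fluorogenic readout. Percent inhibition vs EDTA-serum baseline and EGTA-serum maximum; IC50 from 4-parameter fit of 10-point curves.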

The subject of assay [3] is C3G patients. The following applies: after 12 weeks of treatment; cited from earlier work.

The term IC50 denotes the midpoint of a concentration-inhibition curve.

Chain of human C3bBb (P00751 260-764): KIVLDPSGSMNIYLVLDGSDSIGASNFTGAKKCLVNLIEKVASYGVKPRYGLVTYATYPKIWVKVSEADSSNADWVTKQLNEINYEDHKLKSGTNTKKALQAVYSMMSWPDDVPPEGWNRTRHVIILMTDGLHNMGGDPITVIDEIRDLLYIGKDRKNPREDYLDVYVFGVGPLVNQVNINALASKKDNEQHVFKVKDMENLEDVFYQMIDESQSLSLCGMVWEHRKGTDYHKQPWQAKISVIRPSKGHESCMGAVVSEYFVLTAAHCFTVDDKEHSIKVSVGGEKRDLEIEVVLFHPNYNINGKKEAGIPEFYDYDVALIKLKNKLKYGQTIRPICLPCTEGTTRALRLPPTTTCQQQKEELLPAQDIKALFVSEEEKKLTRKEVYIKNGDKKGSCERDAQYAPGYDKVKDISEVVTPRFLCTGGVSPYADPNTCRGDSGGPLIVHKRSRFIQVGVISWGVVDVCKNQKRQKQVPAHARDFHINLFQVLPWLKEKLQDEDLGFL
Chain of human C3bBb (P01024 23-667 partner): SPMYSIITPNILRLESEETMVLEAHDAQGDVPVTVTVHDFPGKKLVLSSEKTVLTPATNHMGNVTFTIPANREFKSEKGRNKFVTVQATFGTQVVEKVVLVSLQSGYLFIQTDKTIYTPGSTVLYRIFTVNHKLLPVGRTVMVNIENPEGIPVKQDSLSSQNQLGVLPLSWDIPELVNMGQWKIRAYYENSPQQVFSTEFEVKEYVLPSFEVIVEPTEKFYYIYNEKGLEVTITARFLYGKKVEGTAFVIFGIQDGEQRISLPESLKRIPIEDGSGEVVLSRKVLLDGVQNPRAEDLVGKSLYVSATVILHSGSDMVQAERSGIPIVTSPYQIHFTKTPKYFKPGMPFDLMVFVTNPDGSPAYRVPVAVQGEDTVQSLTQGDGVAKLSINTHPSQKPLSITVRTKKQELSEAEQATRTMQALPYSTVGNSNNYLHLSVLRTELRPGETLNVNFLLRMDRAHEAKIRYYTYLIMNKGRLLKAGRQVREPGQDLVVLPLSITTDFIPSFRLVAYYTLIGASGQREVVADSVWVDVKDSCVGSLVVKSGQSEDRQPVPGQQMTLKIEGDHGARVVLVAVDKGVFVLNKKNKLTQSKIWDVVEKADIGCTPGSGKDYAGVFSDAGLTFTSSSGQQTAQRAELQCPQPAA
Chain of human C3bBb (P01024 749-1663 partner): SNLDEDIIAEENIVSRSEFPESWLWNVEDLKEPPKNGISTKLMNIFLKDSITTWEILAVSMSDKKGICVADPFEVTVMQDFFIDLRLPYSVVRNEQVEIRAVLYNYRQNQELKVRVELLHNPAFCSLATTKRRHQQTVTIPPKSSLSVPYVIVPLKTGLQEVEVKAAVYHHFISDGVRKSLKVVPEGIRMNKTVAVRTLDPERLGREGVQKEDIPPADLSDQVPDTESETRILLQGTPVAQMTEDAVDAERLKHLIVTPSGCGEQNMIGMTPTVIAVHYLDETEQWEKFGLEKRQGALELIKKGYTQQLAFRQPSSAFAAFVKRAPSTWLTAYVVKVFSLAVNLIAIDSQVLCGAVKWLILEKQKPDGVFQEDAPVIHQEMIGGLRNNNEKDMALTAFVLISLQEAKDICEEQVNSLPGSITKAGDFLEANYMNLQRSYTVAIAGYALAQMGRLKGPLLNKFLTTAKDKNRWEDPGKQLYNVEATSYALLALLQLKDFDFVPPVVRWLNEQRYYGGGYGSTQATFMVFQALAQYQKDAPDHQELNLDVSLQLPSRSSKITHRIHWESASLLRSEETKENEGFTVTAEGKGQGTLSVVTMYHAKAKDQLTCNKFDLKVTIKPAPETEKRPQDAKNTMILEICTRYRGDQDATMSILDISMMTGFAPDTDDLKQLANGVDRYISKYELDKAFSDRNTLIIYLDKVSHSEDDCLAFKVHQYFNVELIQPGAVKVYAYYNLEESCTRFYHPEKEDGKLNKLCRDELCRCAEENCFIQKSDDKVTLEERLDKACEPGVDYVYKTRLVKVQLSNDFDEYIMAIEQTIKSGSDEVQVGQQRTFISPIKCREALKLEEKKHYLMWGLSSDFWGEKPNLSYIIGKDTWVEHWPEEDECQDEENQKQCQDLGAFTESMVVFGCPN

With `COc1cc(C)c2[nH]cc(Cl)c2c1CN1CC[C@H](N2CC(C(F)(F)F)C2)C[C@H]1c1ccc(C(=O)O)cc1` [Example 75, 4-((2S,4S)-1-((3-chloro-5-methoxy-7-methyl-1H-indol-4-yl)methyl)-4-(3-(trifluoromethyl)azetidin-1-yl)piperidin-2-yl)benzoic acid], the IC50 in assay [1] lay within 10 to 25 nM; in assay [2], 200 to 300 nM.

`Cc1cc(C2CC2)c(CN2CC[C@H](N3CC(C(F)(F)F)C3)C[C@H]2c2ccc(C(=O)O)cc2)c2cc[nH]c12` [Example 76, 4-((2S,4S)-1-((5-cyclopropyl-7-methyl-1H-indol-4-yl)methyl)-4-(3-(trifluoromethyl)azetidin-1-yl)piperidin-2-yl)benzoic acid]: the figures for the IC50 in assay [1] and in assay [2] were less than 10 nM and 100 to 200 nM, respectively.

`Cc1cc(C2CC2)c(CN2CC[C@H](N3CC(C#N)C3)C[C@H]2c2ccc(C(=O)O)cc2)c2cc[nH]c12` [Example 77, 4-((2S,4S)-4-(3-cyanoazetidin-1-yl)-1-((5-cyclopropyl-7-methyl-1H-indol-4-yl)methyl)piperidin-2-yl)benzoic acid]: the IC50 in assay [1] was less than 10 nM; in assay [2] it was less than 100 nM.

With `Cc1cc(C2CC2)c(CN2CC[C@H](N3CC4(CC4)C3)C[C@H]2c2ccc(C(=O)O)cc2)c2cc[nH]c12` [Example 78, 4-((2S,4S)-1-((5-cyclopropyl-7-methyl-1H-indol-4-yl)methyl)-4-(5-azaspiro[2.3]hexan-5-yl)piperidin-2-yl)benzoic acid], the IC50 in assay [1] lay in the range of 25 to 50 nM; in assay [2] it was 100 to 200 nM.

In the case of `COc1cc(C)c2[nH]ccc2c1CN1CC[C@H](N2CC(S(C)(=O)=O)C2)C[C@H]1c1ccc(C(=O)O)cc1` [Example 79, 4-((2S,4S)-1-((5-methoxy-7-methyl-1H-indol-4-yl)methyl)-4-(3-(methylsulfonyl)azetidin-1-yl)piperidin-2-yl)benzoic acid], the values for the IC50 in assay [1] and in assay [2] were 50 to 100 nM and 100 to 200 nM, respectively.

Consider `COc1cc(C)c2[nH]ccc2c1CN1CC[C@H](N2CC(F)C2)C[C@H]1c1ccc(C(=O)O)cc1` [Example 80, 4-((2S,4S)-4-(3-fluoroazetidin-1-yl)-1-((5-methoxy-7-methyl-1H-indol-4-yl)methyl)piperidin-2-yl)benzoic acid], for which the results for the IC50 in assay [1] and in assay [2] were 25 to 50 nM and 200 to 300 nM, respectively.

Consider `COc1cc(C)c2[nH]ccc2c1CN1CC[C@H](N2CC(C(F)(F)F)C2)C[C@H]1c1ccc(C(=O)O)cc1` [Example 81, 4-((2S,4S)-1-((5-methoxy-7-methyl-1H-indol-4-yl)methyl)-4-(3-(trifluoromethyl)azetidin-1-yl)piperidin-2-yl)benzoic acid], for which the IC50 in assay [1] was less than 10 nM; in assay [2], less than 100 nM.

For `COc1cc(C)c2[nH]ccc2c1CN1CC[C@H](OC2COC2)C[C@H]1c1ccc(C(=O)O)cc1` [Example 82, 4-((2S,4S)-1-((5-methoxy-7-methyl-1H-indol-4-yl)methyl)-4-(oxetan-3-yloxy)piperidin-2-yl)benzoic acid], the IC50 in assay [1] was in the range of 10 to 25 nM; in assay [2], 200 to 300 nM.

In the case of `COc1cc(C)c2[nH]ccc2c1CN1CC[C@H](OCC(F)F)C[C@H]1c1ccc(C(=O)O)cc1` [Example 83, 4-((2S,4S)-4-(2,2-difluoroethoxy)-1-((5-methoxy-7-methyl-1H-indol-4-yl)methyl)piperidin-2-yl)benzoic acid], the IC50 in assay [1] was less than 10 nM; in assay [2], 100 to 200 nM.

In the case of `COc1cc(C)c2[nH]ccc2c1CN1CC[C@H](OC2CCC2)C[C@H]1c1ccc(C(=O)O)cc1` [Example 84, 4-((2S,4S)-4-cyclobutoxy-1-((5-methoxy-7-methyl-1H-indol-4-yl)methyl)piperidin-2-yl)benzoic acid], the results for the IC50 in assay [1] and in assay [2] were 25 to 50 nM and 200 to 300 nM, respectively.

Take `COc1cc(C)c2[nH]ccc2c1CN1CC[C@H](OCC(F)(F)F)C[C@H]1c1ccc(C(=O)O)cc1` [Example 85, 4-((2S,4S)-1-((5-methoxy-7-methyl-1H-indol-4-yl)methyl)-4-(2,2,2-trifluoroethoxy)piperidin-2-yl)benzoic acid]: the IC50 in assay [1] was less than 10 nM; in assay [2], 100 to 200 nM.

As for `CCO[C@H]1CCN(Cc2c(OC)cc(C)c3[nH]ccc23)[C@H](c2ccc(C(=O)O)cc2)C1` [iptacopan], the “efficacy (proteinuria)” value in assay [3] is reported as “reduced proteinuria”.

(Values after patent publication US20250289804A1, “SUBSTITUTED INDOLE COMPOUNDS AND METHODS OF USE THEREOF” (NOVARTIS PHARMA AG, priority 2021, published 2025).)
